“And” between values parts separate entries of the source, which are not always exact repeats. Equal values may be shown once. Toxic doses and inconclusive results are not listed. Cut-off read from the data, not from the text of the source: active = T/C of 150% or more; inactive = T/C below 125%.
Test system: L1210 leukemia ip in BDF1 mice, survival T/C
Test: NCI In Vivo Anticancer Drug Screen. Data for tumor model L1210 Leukemia (intraperitoneal) in B6D2F1 (BDF1) mice
Details: endpoint: mean survival time, higher = longer survival
In short: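 Transplanted-tumor mice were given test agent; controls received vehicle only. Survival readings from the two groups were divided (treated over control).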

[1] = dose: 25.0 mg/kg/injection, schedule: Q01DX009 (ip), vehicle: saline
[2] = dose: 25.0 mg/kg/injection, schedule: Q04DX003 (ip), vehicle: saline
[3] = dose: 50.0 mg/kg/injection, schedule: Q01DX009 (ip), vehicle: saline
[4] = dose: 50.0 mg/kg/injection, schedule: Q04DX003 (ip), vehicle: saline
[5] = dose: 100.0 mg/kg/injection, schedule: Q01DX009 (ip), vehicle: saline
[6] = dose: 100.0 mg/kg/injection, schedule: Q04DX003 (ip), vehicle: saline
[7] = dose: 200.0 mg/kg/injection, schedule: Q04DX003 (ip), vehicle: saline
[8] = dose: 200.0 mg/kg/injection, schedule: Q01DX009 (ip), vehicle: saline
[9] = dose: 100.0 mg/kg/injection, schedule: Q01DX009 (ip), vehicle: Klucel (hydroxypropylcellulose) (HPC)
[10] = dose: 100.0 mg/kg/injection, schedule: Q04DX002 (ip), vehicle: Klucel (hydroxypropylcellulose) (HPC)
[11] = dose: 200.0 mg/kg/injection, schedule: Q04DX002 (ip), vehicle: Klucel (hydroxypropylcellulose) (HPC)
[12] = dose: 400.0 mg/kg/injection, schedule: Q04DX002 (ip), vehicle: Klucel (hydroxypropylcellulose) (HPC)
[13] = dose: 50.0 mg/kg/injection, schedule: Q04DX003 (ip), vehicle: saline with Tween-80
[14] = dose: 100.0 mg/kg/injection, schedule: Q04DX003 (ip), vehicle: saline with Tween-80
[15] = dose: 200.0 mg/kg/injection, schedule: Q04DX003 (ip), vehicle: saline with Tween-80
[16] = dose: 100.0 mg/kg/injection, schedule: Q01DX001 (ip), vehicle: carboxymethylcellulose (CMC)
[17] = dose: 200.0 mg/kg/injection, schedule: Q01DX001 (ip), vehicle: carboxymethylcellulose (CMC)
[18] = dose: 400.0 mg/kg/injection, schedule: Q01DX001 (ip), vehicle: carboxymethylcellulose (CMC)
[19] = dose: 100.0 mg/kg/injection, schedule: Q01DX001 (ip), vehicle: saline
[20] = dose: 200.0 mg/kg/injection, schedule: Q01DX001 (ip), vehicle: saline
[21] = dose: 400.0 mg/kg/injection, schedule: Q01DX001 (ip), vehicle: saline

Measured: T/C

CN(C)C(=O)Sc1cc(Cl)c(Cl)cc1Cl
inactive: dose: 87.0 mg/kg/injection, schedule: Q01DX001 (ip), vehicle: Klucel (hydroxypropylcellulose) (HPC) 92 % of control | dose: 175.0 mg/kg/injection, schedule: Q01DX001 (ip), vehicle: Klucel (hydroxypropylcellulose) (HPC) 92 % of control | dose: 350.0 mg/kg/injection, schedule: Q01DX001 (ip), vehicle: Klucel (hydroxypropylcellulose) (HPC) 94 % of control

CCC[CH2][Sn]1([CH2]CCC)[CH]=CCC=[C]1C
inactive: dose: 6.25 mg/kg/injection, schedule: Q01DX009 (ip), vehicle: saline with Tween-80 93 % of control | dose: 12.5 mg/kg/injection, schedule: Q01DX009 (ip), vehicle: saline with Tween-80 93 % of control | dose: 25.0 mg/kg/injection, schedule: Q01DX009 (ip), vehicle: saline with Tween-80 101 % of control and 89 % of control

CC1NCCOC1c1ccccc1 (configuration not stated)
inactive: dose: 12.5 mg/kg/injection, schedule: Q01DX009 (ip), vehicle: saline 93 % of control | [1] 108 % of control and 92 % of control | [2] 114 % of control | [3] 100 % of control and 108 % of control | [4] 103 % of control | [5] 106 % of control | [6] 100 % of control | [7] 88 % of control

CCc1cc(CC)c(CC)c(CC)c1
inactive: [5] 100 % of control | [6] 107 % of control | [8] 87 % of control | [7] 105 % of control | dose: 400.0 mg/kg/injection, schedule: Q01DX009 (ip), vehicle: saline 108 % of control | dose: 400.0 mg/kg/injection, schedule: Q04DX003 (ip), vehicle: saline 91 % of control

OC1=NN(Cc2ccccc2)NO1
inactive: dose: 25.0 mg/kg/injection, schedule: Q01DX009 (ip), vehicle: Klucel (hydroxypropylcellulose) (HPC) 95 % of control | dose: 50.0 mg/kg/injection, schedule: Q01DX009 (ip), vehicle: Klucel (hydroxypropylcellulose) (HPC) 95 % of control | [9] 92 % of control | [10] 104 % of control | [11] 104 % of control | [12] 93 % of control

COC(=O)c1ccccc1NC(=O)C(Cl)Cl
inactive: dose: 100.0 mg/kg/injection, schedule: Q01DX009 (ip), vehicle: other 106 % of control | dose: 200.0 mg/kg/injection, schedule: Q01DX009 (ip), vehicle: other 93 % of control | dose: 400.0 mg/kg/injection, schedule: Q01DX009 (ip), vehicle: other 98 % of control

c1ccc(Cn2ccc3ccncc32)cc1
inactive: dose: 75.0 mg/kg/injection, schedule: Q01DX001 (ip), vehicle: other 96 % of control

CC12CC(C(O)(C(F)(F)F)C(F)(F)F)C(=O)C=C1CCC1C2CCC2(C)C(C(=O)CC(O)(C(F)(F)F)C(F)(F)F)CCC12 (configuration not stated)
inactive: dose: 100.0 mg/kg/injection, schedule: Q01DX001 (sc), vehicle: steriod suspending solution 103 % of control | dose: 200.0 mg/kg/injection, schedule: Q01DX001 (sc), vehicle: steriod suspending solution 103 % of control | dose: 400.0 mg/kg/injection, schedule: Q01DX001 (sc), vehicle: steriod suspending solution 101 % of control

NNc1nncc(-c2ccccc2)n1
inactive: dose: 25.0 mg/kg/injection, schedule: Q01DX001 (ip), vehicle: other 100 % of control | dose: 50.0 mg/kg/injection, schedule: Q01DX001 (ip), vehicle: other 103 % of control | dose: 200.0 mg/kg/injection, schedule: Q01DX001 (ip), vehicle: other 105 % of control

Cc1nc2ccccc2c(=O)n1-c1ccc(N(CCCl)CCCl)cc1
inactive: dose: 100.0 mg/kg/injection, schedule: Q04DX002 (ip), vehicle: saline 98 % of control | dose: 200.0 mg/kg/injection, schedule: Q04DX002 (ip), vehicle: saline 117 % of control | dose: 400.0 mg/kg/injection, schedule: Q04DX002 (ip), vehicle: saline 103 % of control

CC(=O)CC(=O)Nc1cccc(Cl)c1C
inactive: [9] 89 % of control | dose: 200.0 mg/kg/injection, schedule: Q01DX009 (ip), vehicle: Klucel (hydroxypropylcellulose) (HPC) 89 % of control

Cc1ccc(S(=O)(=O)N(C)c2ccccc2C(=O)O)cc1
inactive: dose: 100.0 mg/kg/injection, schedule: Q04DX003 (ip), vehicle: Klucel (hydroxypropylcellulose) (HPC) 104 % of control | dose: 200.0 mg/kg/injection, schedule: Q04DX003 (ip), vehicle: Klucel (hydroxypropylcellulose) (HPC) 97 % of control | dose: 400.0 mg/kg/injection, schedule: Q04DX003 (ip), vehicle: Klucel (hydroxypropylcellulose) (HPC) 95 % of control

CCN(CC)CCOc1cccc(Oc2ccccc2)c1
inactive: [3] 96 % of control | [5] 117 % of control | [6] 98 % of control

N#CCCn1c(=S)sc2ccccc21
inactive: [13] 103 % of control | [14] 100 % of control | [15] 106 % of control

COc1ccc(OC)c(-n2cccc2)c1
inactive: dose: 100.0 mg/kg/injection, schedule: Q04DX002 (ip), vehicle: saline with Tween-80 87 % of control | dose: 200.0 mg/kg/injection, schedule: Q04DX002 (ip), vehicle: saline with Tween-80 103 % of control | dose: 400.0 mg/kg/injection, schedule: Q04DX002 (ip), vehicle: saline with Tween-80 94 % of control

C=CCOCC(O)CN(C)CC1CCCO1 (configuration not stated)
inactive: [5] 95 % of control | [6] 98 % of control | [8] 95 % of control | [7] 86 % of control

C/C=C/COc1cc[n+]([O-])cc1
inactive: [6] 102 % of control | [7] 107 % of control

O=C(Nc1cccc2ccccc12)c1ccccc1O
inactive: dose: 50.0 mg/kg/injection, schedule: Q01DX001 (ip), vehicle: carboxymethylcellulose (CMC) 113 % of control | [16] 108 % of control | [17] 96 % of control | [18] 116 % of control

COc1ccc(OC)c(CC=O)c1
inactive: dose: 100.0 mg/kg/injection, schedule: Q04DX003 (ip), vehicle: alcohol 97 % of control | dose: 200.0 mg/kg/injection, schedule: Q04DX003 (ip), vehicle: alcohol 101 % of control | dose: 400.0 mg/kg/injection, schedule: Q04DX003 (ip), vehicle: alcohol 103 % of control

CCN1CCC2CN(C(=O)Nc3ccccc3)CCN2C1=O (configuration not stated)
inactive: [14] 98 % of control | [15] 90 % of control | dose: 400.0 mg/kg/injection, schedule: Q04DX003 (ip), vehicle: saline with Tween-80 87 % of control

CC1C(C)(C)P(=O)(c2ccccc2)C1(C)C (configuration not stated)
inactive: dose: 12.5 mg/kg/injection, schedule: Q04DX003 (ip), vehicle: saline 96 % of control | [2] 96 % of control | [4] 105 % of control

O=C(OCC1CC1)c1cc([N+](=O)[O-])cc([N+](=O)[O-])c1
inactive: dose: 25.0 mg/kg/injection, schedule: Q04DX003 (ip), vehicle: saline with Tween-80 108 % of control | [13] 106 % of control | [14] 101 % of control

O=[N+]([O-])c1cccc(/C(Cl)=C/CCl)c1
inactive: dose: 50.0 mg/kg/injection, schedule: Q01DX001 (ip), vehicle: Klucel (hydroxypropylcellulose) (HPC) 98 % of control | dose: 100.0 mg/kg/injection, schedule: Q01DX001 (ip), vehicle: Klucel (hydroxypropylcellulose) (HPC) 101 % of control | dose: 200.0 mg/kg/injection, schedule: Q01DX001 (ip), vehicle: Klucel (hydroxypropylcellulose) (HPC) 97 % of control

CCCC[N+](C)(C)CC[N+](C)(C)CCCC
inactive: [19] 102 % of control | [20] 105 % of control | [21] 102 % of control

CC(=O)OC1COC(SSC2OCC(OC(C)=O)C(OC(C)=O)C2OC(C)=O)C(OC(C)=O)C1OC(C)=O (configuration not stated)
inactive: [19] 89 % of control | [20] 89 % of control | [21] 101 % of control

O=COc1ccc([N+](=O)[O-])cc1
inactive: [1] 98 % of control | [3] 95 % of control | [5] 98 % of control | [6] 101 % of control

N#CSCC1OCC(C(O)C(O)C2COC(CSC#N)O2)O1 (configuration not stated)
inactive: [10] 95 % of control | [11] 98 % of control | [12] 95 % of control

S=C(Nc1ccc(Cl)cc1)Nc1ccc(Cc2ccc(NC(=S)Nc3ccc(Cl)cc3)cc2)cc1
inactive: [10] 113 % of control | [11] 106 % of control | [12] 92 % of control

N#Cc1ccc(/C=N/N2CCN(/N=C/c3ccc(C#N)cc3)CC2)cc1
inactive: [16] 96 % of control | [17] 91 % of control | [18] 94 % of control
